Assay results taken from patent publication US11186606B2, “Compositions and methods of modulating the immune response by activating alpha protein kinase 1” (Shanghai Yao Yuan Biotechnology Co., Ltd., priority 2017, dated 2021).

Target: ALPK1 (Homo sapiens, UniProt Q96QP1)
Experiment: In vitro kinase assay of ALPK1-dependent TIFA phosphorylation
Assay type: biochemical
Procedure: We performed an in vitro kinase assay with H1b-ADP and H1b-ADP-6L along with ALPK1 protein (2 nM), and TIFA protein (1.6 uM) in kinase buffer containing 50 uM ATP. TIFA phosphorylation was analyzed by denaturing gel electrophoresis followed by western blotting using an anti-phosphothreonine antibody. H1b-ADP or H1b-ADP-6L was added at 2 nM, 0.4 nM, 80 pM, 16 pM, and 3 pM.
To test this, we performed an in vitro kinase reaction for ALPK1-dependent TIFA phosphorylation in the presence of either HBP or HIdA purified from E. coli containing inactivated HIdE, or in the presence of HBP and HIdA purified from the same HIdE wild-type E. coli used in the previous experiments. Phosphorylated TIFA (three concentrations, 1%, 0.2% and […]) was detected as described above by denaturing gel electrophoresis followed by Western analysis.

ALPK1, sequence (Q96QP1 whole entry): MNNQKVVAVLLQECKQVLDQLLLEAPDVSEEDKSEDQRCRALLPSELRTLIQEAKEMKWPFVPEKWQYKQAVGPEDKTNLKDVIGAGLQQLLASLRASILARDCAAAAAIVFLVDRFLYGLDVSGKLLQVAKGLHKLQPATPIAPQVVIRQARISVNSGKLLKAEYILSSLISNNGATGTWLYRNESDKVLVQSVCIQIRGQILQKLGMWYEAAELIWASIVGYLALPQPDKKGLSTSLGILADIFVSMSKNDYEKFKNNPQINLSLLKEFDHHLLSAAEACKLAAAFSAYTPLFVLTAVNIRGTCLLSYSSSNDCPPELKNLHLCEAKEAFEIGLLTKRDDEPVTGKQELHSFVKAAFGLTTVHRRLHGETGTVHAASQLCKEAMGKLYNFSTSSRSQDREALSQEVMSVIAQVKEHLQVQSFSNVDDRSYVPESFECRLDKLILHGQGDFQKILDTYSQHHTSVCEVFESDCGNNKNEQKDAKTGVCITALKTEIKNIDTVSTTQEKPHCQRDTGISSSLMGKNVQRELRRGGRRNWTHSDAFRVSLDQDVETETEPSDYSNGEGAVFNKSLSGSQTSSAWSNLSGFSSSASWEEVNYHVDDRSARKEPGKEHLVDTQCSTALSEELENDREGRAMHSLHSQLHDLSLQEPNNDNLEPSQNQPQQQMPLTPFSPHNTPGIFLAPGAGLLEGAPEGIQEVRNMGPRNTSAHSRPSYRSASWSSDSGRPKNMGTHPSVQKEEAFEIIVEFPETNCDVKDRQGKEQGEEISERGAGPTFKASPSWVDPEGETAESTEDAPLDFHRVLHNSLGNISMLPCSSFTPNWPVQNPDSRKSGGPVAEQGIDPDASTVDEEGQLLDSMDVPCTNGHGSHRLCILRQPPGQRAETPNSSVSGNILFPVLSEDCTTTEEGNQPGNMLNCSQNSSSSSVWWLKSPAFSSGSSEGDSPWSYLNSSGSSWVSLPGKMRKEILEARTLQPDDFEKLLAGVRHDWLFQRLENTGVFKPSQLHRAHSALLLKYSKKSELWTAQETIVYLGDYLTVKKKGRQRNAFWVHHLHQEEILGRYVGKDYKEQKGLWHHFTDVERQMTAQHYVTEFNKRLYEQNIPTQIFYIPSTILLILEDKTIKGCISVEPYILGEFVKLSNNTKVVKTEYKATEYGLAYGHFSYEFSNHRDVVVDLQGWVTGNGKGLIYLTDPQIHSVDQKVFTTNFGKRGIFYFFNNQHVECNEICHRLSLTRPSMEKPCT

TIFA phosphorylation (ALPK1-dependent signaling) (ALPK1 2 nM, TIFA 1.6 uM, 50 uM ATP, 2 nM to 3 pM): activated ALPK1-dependent signaling
SMILES: Nc1ncnc2c1ncn2[C@@H]1O[C@H](COP(=O)(O)OP(=O)(O)O[C@@H]2O[C@H]([C@H](O)CO)[C@@H](O)[C@H](O)[C@@H]2O)[C@@H](O)[C@H]1O [Compound H1b-ADP, D-glycero-D-manno-heptose-1β-ADP]
phosphorylation of the ALPK1 substrate TIFA (FIG. 7, chemically-synthesized compounds): TIFA is phosphorylated only in the presence of H1b-ADP
